Results published in PubChem BioAssay AID977628 (Broad Institute, 2014).
Results filed as inconclusive are left out. The source made the active and inactive calls.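 Rule for the calls: active = compound lowering the normal-ribosome reporter at least twice as much as the humanized-ribosome reporter, growth loss under a set limit; inconclusive = no clear call, values can overlap the other calls; inactive = the rest.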

These compounds were tested on E. coli WT GFP strain growth, fluorescence, 24 h (assay: E. coli growth inhibition, wild-type GFP versus h24 humanized RFP strain, dose response, h24 mutant RFP vs wild-type GFP, cherry-pick (AID 977628);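 note: wild-type GFP and h24 humanized RFP strains co-cultured 1 to 1 per well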).
For `Cc1ccc2nc(SCC(=O)c3ccc(O)cc3O)[nH]c2c1`, the AC50 was > 100 µM (inactive).
`COC(=O)c1ccc2nc(-c3cccc(Br)c3)c(Cc3ccsc3)n2c1` was tested, and the AC50 was > 100 µM (inactive).
`O=C(Cc1cccc2ccccc12)Nc1ccccc1C(=O)O` was tested, and the AC50 was > 100 µM (inactive).
For `COc1ccc(CNc2ccc([N+](=O)[O-])cc2C)cc1`, the AC50 was > 100 µM (inactive).
For `Cc1nn(S(=O)(=O)c2ccc(Cl)cc2)c(C)c1Sc1ccc([N+](=O)[O-])cc1`, the AC50 was > 100 µM (inactive).
In the case of `CCC(=O)Nc1nc2ccc(NC(=O)c3cc(OC)c(OC)c(OC)c3)cc2s1`, the AC50 is reported as > 100 µM (inactive).
`CSc1ccccc1NC(=O)c1ccccc1N(Cc1ccccc1)S(C)(=O)=O` was tested, and the AC50 was > 100 µM (inactive).
With `NC(=O)c1nsc(C(=O)N(c2ccccc2F)C(C(=O)NCc2ccc(F)cc2)c2ccc(O)cc2)c1N` (stereo not drawn) the AC50 was > 100 µM (inactive).
In the case of `CN(c1ccccc1)S(=O)(=O)c1cccc(C(=O)OCC(=O)NCc2ccco2)c1`, the AC50 is reported as > 100 µM (inactive).
In the case of `CSc1ccc(CN(C)CC(=O)NC(C)c2ccccc2)cc1` (stereo not drawn), the AC50 is reported as > 100 µM (inactive).
With `CC(CCC(=O)O)C1CC[C@@]2(C)C3C(=O)CC4C(C)(C)C(O)CC[C@]4(C)C3C(=O)C[C@]12C` (stereo partly drawn) the AC50 was > 100 µM (inactive).
`CCN(CC)S(=O)(=O)c1cc(NS(=O)(=O)c2cccc(Cl)c2Cl)ccc1C` was tested, and the AC50 was > 100 µM (inactive).
For `Cc1ccccc1-n1ncc2c1CC(C)(C)CC2NC(=O)CCN1Cc2ccccc2C1=O` (stereo not drawn), the AC50 was > 100 µM (inactive).
In the case of `c1cncc(-c2nc3cc4ccccc4cc3[nH]2)c1`, the AC50 is reported as > 100 µM (inactive).
In the case of `Nc1nn(-c2ccccc2)c2ccc([N+](=O)[O-])cc12`, the AC50 is reported as > 100 µM (inactive).
`COc1cccc(OC)c1OCCCOc1cccc2cccnc12` was tested, and the AC50 was > 100 µM (inactive).
With `COc1ccc(CNc2ncnc3cc(OC)c(OC)cc23)cc1OC` the AC50 was > 100 µM (inactive).
`COc1cccc(NC2=Nc3cccc4cccc2c34)c1` was tested, and the AC50 was > 100 µM (inactive).
In the case of `CC(C)(C)c1ccc(N2C(=O)CSC2c2cccnc2)cc1` (stereo not drawn), the AC50 is reported as > 100 µM (inactive).
In the case of `CC1(C)CC(=O)c2cnc(N3CCc4ccccc43)nc2C1`, the AC50 is reported as > 100 µM (inactive).
With `O=C1Nc2ccc(F)cc2C12Nc1ccccc1-c1nnc(SCc3ccccc3)nc1O2` (stereo not drawn) the AC50 was > 100 µM (inactive).
In the case of `CC(C)=C(c1ccc(Cl)cc1)c1c(N)ncnc1N`, the AC50 is reported as > 100 µM (inactive).
With `COc1cc2[nH]c(=S)nc(NCCc3ccc(C)cc3)c2cc1OC` the AC50 was > 100 µM (inactive).
For `O=C(c1ccccc1)C1CN(Cc2ccccc2)CCC1(O)c1ccccc1` (stereo not drawn), the AC50 was > 100 µM (inactive).
In the case of `Fc1ccc(-c2nnc(-c3ccc4ccccc4c3)o2)cc1`, the AC50 is reported as > 100 µM (inactive).
`Cc1ccc(Cl)cc1N1CCN(C(=O)c2ccc3nc[nH]c3c2)CC1` was tested, and the AC50 was > 100 µM (inactive).
With `CCOc1ccccc1N1CCN(Cc2cn[nH]c2-c2ccc(F)cc2)CC1` the AC50 was > 100 µM (inactive).
With `CCOc1ccc2nc(SCC(=O)Nc3cccc(S(=O)(=O)NC4=NCCCCC4)c3)[nH]c2c1` the AC50 was > 100 µM (inactive).
For `CCn1nnc(NC(=O)c2ccc([N+](=O)[O-])o2)n1`, the AC50 was > 100 µM (inactive).
For `O=C(NCc1nc2ccccc2[nH]1)c1ccc(S(=O)(=O)N2CCCC2)cc1`, the AC50 was > 100 µM (inactive).
For `Cc1ccc(C(=O)C2CCN(CC(=O)Nc3nc(C)cs3)CC2)cc1`, the AC50 was > 100 µM (inactive).
With `CCN(CC)CCN(C(=O)c1ccc2c(c1)OCCO2)c1nc2cc(C)cc(C)c2s1` the AC50 was > 100 µM (inactive).
For `CCOC(=O)c1cc(C)nc(N2CCCCC2)c1C#N`, the AC50 was > 100 µM (inactive).
For `O=C(CCCOc1ccc(Cl)cc1Cl)Nc1ccccc1C(=O)O`, the AC50 was > 100 µM (inactive).
With `CSc1cccc(NC(=O)CSc2nc3ccccc3o2)c1` the AC50 was > 100 µM (inactive).
`CC(=O)N1CCN(c2nc(-c3cccs3)nc3ccccc23)CC1` was tested, and the AC50 was > 100 µM (inactive).
For `COc1cccc(Nc2nc(N)c([N+](=O)[O-])c(NCc3ccccc3)n2)c1`, the AC50 was > 100 µM (inactive).
With `COCc1nnc(NC(=O)c2ccc(S(=O)(=O)N3CCCC3)cc2)o1` the AC50 was > 100 µM (inactive).
With `COc1ccc(C(=O)c2c(C)oc3ccc(O)cc23)cc1` the AC50 was > 100 µM (inactive).
With `c1ccc(SCc2nc3ccccc3s2)nc1` the AC50 was > 100 µM (inactive).
In the case of `O=C(CCC(=O)c1cccs1)OCC(=O)c1ccc(Cl)s1`, the AC50 is reported as > 100 µM (inactive).
In the case of `COc1cccc(C2c3cc4c(cc3OC(N3CCCC3)C2C)OCO4)c1O` (stereo not drawn), the AC50 is reported as > 100 µM (inactive).
With `CCC(C(=O)NCCc1ccc(C)cc1)n1nc(C)c2c(C)n(-c3ccccc3)nc2c1=O` (stereo not drawn) the AC50 was > 100 µM (inactive).
`CCC(C)C(=O)Nc1nc2ccc(OC)cc2s1` (stereo not drawn) was tested, and the AC50 was > 100 µM (inactive).
With `COc1ccc(CNS(=O)(=O)c2ccc3c(c2)NC(=O)C(C)S3)cc1` (stereo not drawn) the AC50 was > 100 µM (inactive).
In the case of `O=C(c1cnc(Cc2c[nH]c3ccccc23)c(I)c1)N1CCCCC1`, the AC50 is reported as > 100 µM (inactive).
With `CC(=O)c1ccc(N2CCN(C(=O)C3CCN(S(=O)(=O)c4ccc5c(c4)CC(C)N5C(C)=O)CC3)CC2)cc1` (stereo not drawn) the AC50 was > 100 µM (inactive).
For `O=C(C[C@H]1CC[C@@H]2[C@H](COC[C@@H](O)CN2C(=O)Nc2cc(Cl)cc(Cl)c2)O1)N1CCOCC1`, the AC50 was > 100 µM (inactive).
